Reference: patent US20250136606A1, “MODULATORS OF TRPML, THEIR COMPOSITIONS AND METHODS OF USE” (Caraway Therapeutics, Inc., priority 2021, published 2025)
Read-outs that look alike come from different tables or passages of the source.

Assays:
Assay type in all cases: cell-based
TRPML3 = molecular target: T1, TRPML3 (Homo sapiens, UniProt Q8TDD5); experiment: Fluorescent TRPML3 assay (performed as for TRPML1, substituting the TRPML3 subtype)
T1 construct: expressed in transfected cells
T1 sequence (Q8TDD5 1-553): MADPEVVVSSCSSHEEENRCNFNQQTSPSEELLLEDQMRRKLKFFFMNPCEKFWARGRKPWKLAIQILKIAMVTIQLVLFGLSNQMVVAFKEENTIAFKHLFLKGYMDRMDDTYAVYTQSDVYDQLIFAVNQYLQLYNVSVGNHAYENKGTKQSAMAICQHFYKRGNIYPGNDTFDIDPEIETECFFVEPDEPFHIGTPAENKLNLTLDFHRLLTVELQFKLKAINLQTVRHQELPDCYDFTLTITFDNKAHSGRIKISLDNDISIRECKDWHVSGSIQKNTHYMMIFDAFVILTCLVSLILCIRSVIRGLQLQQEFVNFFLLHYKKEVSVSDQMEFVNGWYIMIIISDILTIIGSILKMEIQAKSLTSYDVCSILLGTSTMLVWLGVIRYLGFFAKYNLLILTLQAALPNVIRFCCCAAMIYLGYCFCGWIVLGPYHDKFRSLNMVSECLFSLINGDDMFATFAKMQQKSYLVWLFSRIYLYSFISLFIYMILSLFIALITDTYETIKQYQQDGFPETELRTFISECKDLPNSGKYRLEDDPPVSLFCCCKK
Procedure, shortened: (§1)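 HEK-293 Trex cells with doxycycline-induced (0.5 ug/mL) surface-directed human TRPML subtype, loaded with 1 μM Fluo4-AM, resuspended in Ringer's with 10 mM calcium. Compounds at 20 μM to 6 nM final in half-log steps, triplicate; fluorescence ex 480/em 540; EC50 by non-linear regression versus plate controls.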

TRPML2 = molecular target: T2, TRPML2 (Homo sapiens, UniProt Q8IZK6); experiment: Fluorescent TRPML2 assay (performed as for TRPML1, substituting the TRPML2 subtype)
T2 construct: expressed in transfected cells
T2 sequence (Q8IZK6 1-566): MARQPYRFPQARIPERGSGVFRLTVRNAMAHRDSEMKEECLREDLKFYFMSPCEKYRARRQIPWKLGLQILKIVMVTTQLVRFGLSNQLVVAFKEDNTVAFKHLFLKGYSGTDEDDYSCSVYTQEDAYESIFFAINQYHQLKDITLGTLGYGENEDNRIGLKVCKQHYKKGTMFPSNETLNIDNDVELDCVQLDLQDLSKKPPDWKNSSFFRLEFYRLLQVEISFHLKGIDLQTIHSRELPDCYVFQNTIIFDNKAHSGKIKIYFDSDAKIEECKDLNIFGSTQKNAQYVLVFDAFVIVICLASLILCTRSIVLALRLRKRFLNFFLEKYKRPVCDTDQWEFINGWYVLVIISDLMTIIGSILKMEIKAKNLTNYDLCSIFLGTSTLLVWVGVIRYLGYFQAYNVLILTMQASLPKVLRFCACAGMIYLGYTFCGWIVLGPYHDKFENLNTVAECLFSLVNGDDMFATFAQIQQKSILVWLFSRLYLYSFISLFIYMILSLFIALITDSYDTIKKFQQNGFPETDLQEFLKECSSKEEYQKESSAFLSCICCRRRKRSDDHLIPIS
Procedure, shortened: as §1

TRPML1 = TRPML1 (Homo sapiens, UniProt Q9GZU1); experiment: Fluorescent TRPML1 assay (Fluo4-AM calcium fluorescence in doxycycline-induced HEK-293 Trex cells)
Procedure, shortened: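 HEK-293 Trex cells stably expressing surface-directed mutant human TRPML1, induced with 0.5 µg/mL doxycycline overnight, were loaded with 1 µM Fluo4-AM and added to compound (6 nM–20 µM final, half-log steps, triplicate) in Ringer's with 10 mM calcium. Fluorescence ex 480/em 540; EC50 by non-linear regression versus plate controls.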

Chain of TRPML1 (Q9GZU1 whole entry L15A/L16A/L577A/L578A, form open): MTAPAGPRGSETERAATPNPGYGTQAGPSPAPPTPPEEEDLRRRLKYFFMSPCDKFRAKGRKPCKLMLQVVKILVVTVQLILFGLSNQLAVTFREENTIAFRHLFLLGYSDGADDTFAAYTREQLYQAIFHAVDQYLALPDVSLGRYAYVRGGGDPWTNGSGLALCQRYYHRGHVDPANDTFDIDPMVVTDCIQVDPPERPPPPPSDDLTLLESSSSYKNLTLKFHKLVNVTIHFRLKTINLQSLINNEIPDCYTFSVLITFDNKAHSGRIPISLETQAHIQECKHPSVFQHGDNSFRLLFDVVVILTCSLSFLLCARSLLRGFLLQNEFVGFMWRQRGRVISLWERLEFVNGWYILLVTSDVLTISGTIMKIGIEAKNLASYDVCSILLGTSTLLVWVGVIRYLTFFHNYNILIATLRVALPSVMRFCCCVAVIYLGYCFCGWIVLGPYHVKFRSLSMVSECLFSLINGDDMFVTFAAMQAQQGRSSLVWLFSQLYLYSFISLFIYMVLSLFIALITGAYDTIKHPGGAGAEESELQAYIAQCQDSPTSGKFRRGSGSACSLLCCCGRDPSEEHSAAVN

EC50 (TRPML3) [nM] | EC50 (TRPML2) [nM] | EC50 (TRPML1) [nM] | EC50 (TRPML3; fluorescent calcium assay) [nM] | EC50 (TRPML2; fluorescent calcium assay) [nM] | EC50 (TRPML1; fluorescent calcium assay) [nM] | SMILES
 |  |  | < 100 | 500 to 2000 | < 100 | Cc1cn(-c2cc(F)ccn2)c2ncnc(N3C[C@@H](C)N(C(=O)OC(C)(C)C)C[C@@H]3C)c12 [Compound 480, tert-butyl (2R,5S)-4-(7-(4-fluoropyridin-2-yl)-5-methyl-7H-pyrrolo[2,3-d]pyrimidin-4-yl)-2,5-dimethylpiperazine-1-carboxylate]
 |  |  | < 100 | 500 to 2000 | 100 to 500 | C[C@H]1CN(C(=O)OC(C)(C)C)CCN1c1ncnc2c1c(C1CC1)cn2-c1cc(C#N)ncn1 [Compound 431, tert-butyl (S)-4-(7-(6-cyanopyrimidin-4-yl)-5-cyclopropyl-7H-pyrrolo[2,3-d]pyrimidin-4-yl)-3-methylpiperazine-1-carboxylate]
< 100 | 500 to 2000 | < 100 |  |  |  | Cc1cn(-c2ccccc2)c2ncnc(N3CCN(C(=O)OC(C)(C)C)C[C@@H]3C)c12 [Compound 685, tert-butyl (S)-3-methyl-4-(5-methyl-7-phenyl-7H-pyrrolo[2,3-d]pyrimidin-4-yl)piperazine-1-carboxylate]
> 2000 | > 2000 | 100 to 500 |  |  |  | C[C@@H]1CN(c2ncnc3c2c(C(F)(F)F)cn3C2CCCCC2)[C@@H](C)CN1C(=O)OC(C)(C)C [Compound 625, tert-butyl (2R,5S)-4-(7-cyclohexyl-5-(trifluoromethyl)-7H-pyrrolo[2,3-d]pyrimidin-4-yl)-2,5-dimethylpiperazine-1-carboxylate]
100 to 500 | 100 to 500 | < 100 |  |  |  | Cc1cn(-c2cccc(F)c2)c2ncnc(N3C[C@@H](C)N(C(=O)OC(C)(C)C)C[C@@H]3C)c12 [Compound 666, tert-butyl (2R,5S)-4-(7-(3-fluorophenyl)-5-methyl-7H-pyrrolo[2,3-d]pyrimidin-4-yl)-2,5-dimethylpiperazine-1-carboxylate]
500 to 2000 | 500 to 2000 | 100 to 500 |  |  |  | C[C@@H]1CN(c2ncnc3c2c(C2CCC2)cn3-c2cccc(Cl)c2)[C@@H](C)CN1C(=O)OC(C)(C)C [Compound 647, tert-butyl (2R,5S)-4-(7-(3-chlorophenyl)-5-cyclobutyl-7H-pyrrolo[2,3-d]pyrimidin-4-yl)-2,5-dimethylpiperazine-1-carboxylate]
 |  |  | 100 to 500 | 500 to 2000 | 100 to 500 | C[C@H]1CN(C(=O)OC(C)(C)C)CCN1c1ncnc2c1c(-c1cccnc1)cn2-c1cccc(F)c1 [Compound 226, tert-butyl (S)-4-(7-(3-fluorophenyl)-5-(pyridin-3-yl)-7H-pyrrolo[2,3-d]pyrimidin-4-yl)-3-methylpiperazine-1-carboxylate]
 |  |  | < 100 | 100 to 500 | 100 to 500 | C[C@@H]1CN(C(=O)OC(C)(C)C)CCN1c1ncnc2c1c(C1CC1)cn2-c1cccc(OC(F)(F)F)c1 [Compound 195, tert-butyl (R)-4-(5-cyclopropyl-7-(3-(trifluoromethoxy)phenyl)-7H-pyrrolo[2,3-d]pyrimidin-4-yl)-3-methylpiperazine-1-carboxylate]
 |  |  | < 100 | 100 to 500 | < 100 | Cc1nccnc1-c1cn(-c2cccc(Cl)c2)c2ncnc(N3C[C@@H](C)N(C(=O)OC(C)(C)C)C[C@@H]3C)c12 [Compound 461, tert-butyl (2R,5S)-4-(7-(3-chlorophenyl)-5-(3-methylpyrazin-2-yl)-7H-pyrrolo[2,3-d]pyrimidin-4-yl)-2,5-dimethylpiperazine-1-carboxylate]
 |  |  | 100 to 500 | 500 to 2000 | < 100 | CC(C)(C)OC(=O)N1CCN(c2ncnc3c2c(C2CC2)cn3-c2ccc(F)c(F)c2)CC1 [Compound 113, tert-butyl 4-(5-cyclopropyl-7-(3,4-difluorophenyl)-7H-pyrrolo[2,3-d]pyrimidin-4-yl)piperazine-1-carboxylate]

More lines, now with the values behind:

SMILES | EC50 (TRPML3) [nM] | EC50 (TRPML2) [nM] | EC50 (TRPML1) [nM] | EC50 (TRPML3; fluorescent calcium assay) [nM] | EC50 (TRPML2; fluorescent calcium assay) [nM] | EC50 (TRPML1; fluorescent calcium assay) [nM]
C[C@H]1CN(C(=O)OC(C)(C)C)CCN1c1ncnc2c1c(N1CCCC1)cn2[C@H]1CCC[C@@H](C#N)C1 [Compound 529, tert-butyl (S)-4-(7-(cis-3-cyanocyclohexyl)-5-(pyrrolidin-1-yl)-7H-pyrrolo[2,3-d]pyrimidin-4-yl)-3-methylpiperazine-1-carboxylate] | 100 to 500 | > 2000 | 500 to 2000 |  |  | 
Cc1nccnc1-c1cn(-c2cc(F)c(F)c(F)c2)c2ncnc(N3CCN(C(=O)OC(C)(C)C)C[C@@H]3C)c12 [Compound 305, tert-butyl (S)-3-methyl-4-(5-(3-methylpyrazin-2-yl)-7-(3,4,5-trifluorophenyl)-7H-pyrrolo[2,3-d]pyrimidin-4-yl)piperazine-1-carboxylate] |  |  |  | 100 to 500 | > 2000 | 500 to 2000
C[C@@H]1CN(c2ncnc3c2c(-c2ccccn2)cn3-c2cc(F)cc(Cl)c2)CCN1C(=O)OC(C)(C)C [Compound 221, tert-butyl (R)-4-(7-(3-chloro-5-fluorophenyl)-5-(pyridin-2-yl)-7H-pyrrolo[2,3-d]pyrimidin-4-yl)-2-methylpiperazine-1-carboxylate] |  |  |  | < 100 | 100 to 500 | < 100
C[C@H]1CN(C(=O)OC(C)(C)C)CCN1c1ncnc2c1c(N1CCC(C)(C)C1)cn2-c1cc(C#N)ccn1 [Compound 405, tert-butyl (S)-4-(7-(4-cyanopyridin-2-yl)-5-(3,3-dimethylpyrrolidin-1-yl)-7H-pyrrolo[2,3-d]pyrimidin-4-yl)-3-methylpiperazine-1-carboxylate] |  |  |  | < 100 | < 100 | < 100
C[C@@H]1CN(c2cn(-c3cc(C#N)ccn3)c3ncnc(N4CCN(C(=O)OC(C)(C)C)C[C@@H]4C)c23)CCO1 [Compound 417, tert-butyl (S)-4-(7-(4-cyanopyridin-2-yl)-5-((R)-2-methylmorpholino)-7H-pyrrolo[2,3-d]pyrimidin-4-yl)-3-methylpiperazine-1-carboxylate] |  |  |  | < 100 | 100 to 500 | < 100
C[C@H]1CN(C(=O)OC(C)(C)C)CCN1c1ncnc2c1c(C1CC1)cn2C1CCCCC1 [Compound 326, tert-butyl (S)-4-(7-cyclohexyl-5-cyclopropyl-7H-pyrrolo[2,3-d]pyrimidin-4-yl)-3-methylpiperazine-1-carboxylate] |  |  |  | < 100 | > 2000 | 100 to 500
C[C@H]1CN(C(=O)OC(C)(C)C)CCN1c1ncnc2c1c(N1CCN(C)CC1)cn2-c1cc(C#N)ccn1 [Compound 381, tert-butyl (S)-4-(7-(4-cyanopyridin-2-yl)-5-(4-methylpiperazin-1-yl)-7H-pyrrolo[2,3-d]pyrimidin-4-yl)-3-methylpiperazine-1-carboxylate] |  |  |  | > 2000 | > 2000 | > 2000
CC(C)(C)OC(=O)N1CCN(c2ncnc3c2c(-c2ccccn2)cn3-c2cccc(Cl)c2)CC1 [Compound 101, tert-butyl 4-(7-(3-chlorophenyl)-5-(pyridin-2-yl)-7H-pyrrolo[2,3-d]pyrimidin-4-yl)piperazine-1-carboxylate] |  |  |  | < 100 | 100 to 500 | 100 to 500
CC(C)(C)OC(=O)N1CCN(c2ncnc3c2c(C(F)F)cn3-c2cc(C#N)ccn2)CC1 [Compound 609, tert-buty1 4-(7-(4-cyanopyridin-2-yl)-5-(difluoromethyl)-7H-pyrrolo[2,3-d]pyrimidin-4-yl)piperazine-1-carboxylate] | < 100 | 500 to 2000 | < 100 |  |  | 
CCC(CC)OC(=O)N1C[C@H](C)N(c2ncnc3c2c(C(F)(F)F)cn3-c2cc(C#N)ccn2)C[C@H]1C [Compound 512, pentan-3-yl (2R,5S)-4-(7-(4-cyanopyridin-2-yl)-5-(trifluoromethyl)-7H-pyrrolo[2,3-d]pyrimidin-4-yl)-2,5-dimethylpiperazine-1-carboxylate] | < 100 | 100 to 500 | < 100 |  |  | 
